Test results published in ChEMBL document CHEMBL6114940, “Exploring the pharmaceutical potential of ammonium organotrifluoroborate functional group: Comprehensive chemical, metabolic, and plasma stability evaluation” (Eur J Med Chem, 2024).
The source made the active and inactive calls. The calls are words filed in the database; no cut-off is given here.

Columns and labels:
Fibroblast [1] = experiment: Cytotoxicity against human fibroblast assessed as reduction in cell viability at 0.1 to 300 uM incubated for 24 to 48 hrs by MTT assay; format: toxicity, cell-based; details: dose lower 0.1 µM, time lower 24 hrs, dose upper 300 µM, time upper 48 hrs
A-375 [2] = experiment: Cytotoxicity against human A-375 assessed as reduction in cell viability at 0.1 to 300 uM incubated for 24 to 48 hrs by MTT assay; format: functional, cell-based; details: dose 0.1-300 µM, time 24-48 hrs
U-87 MG [3] = experiment: Cytotoxicity against human U-87 MG assessed as reduction in cell viability at 0.1 to 300 uM incubated for 24 to 48 hrs by MTT assay; format: functional, cell-based; details: U-87MG ATCC, dose 0.1-300 µM, time 24-48 hrs
Fibroblast [4] = experiment: Cytotoxicity against human fibroblast assessed as reduction in cell viability at 0.1 to 300 uM incubated for 72 hrs by MTT assay; format: toxicity, cell-based; details: dose 0.1-300 µM
A-375 [5] = experiment: Cytotoxicity against human A-375 assessed as reduction in cell viability at 0.1 to 300 uM incubated for 72 hrs by MTT assay; format: functional, cell-based; details: dose 0.1-300 µM
U-87 MG [6] = experiment: Cytotoxicity against human U-87 MG assessed as reduction in cell viability at 0.1 to 300 uM incubated for 72 hrs by MTT assay; format: functional, cell-based; details: U-87MG ATCC, dose 0.1-300 µM
Fibroblast [7] = experiment: Cytotoxicity against human fibroblast assessed as reduction in cell viability at 300 uM incubated for 24 to 72 hrs by MTT assay relative to control; format: toxicity, cell-based; details: time 24-72 hrs
A-375 [8] = experiment: Cytotoxicity against human A-375 assessed as reduction in cell viability at 300 uM incubated for 24 to 72 hrs by MTT assay relative to control; format: functional; details: time 24-72 hrs
U-87 MG [9] = experiment: Cytotoxicity against human U-87 MG assessed as reduction in cell viability at 300 uM incubated for 24 to 72 hrs by MTT assay relative to control; format: functional, U-87MG ATCC; details: time 24-72 hrs
Fibroblast [10] = experiment: Cytotoxicity against human fibroblast assessed as reduction in cell viability upto 100 uM incubated for 24 to 72 hrs by MTT assay; format: toxicity, cell-based; details: time 24-72 hrs
A-375 [11] = experiment: Cytotoxicity against human A-375 assessed as reduction in cell viability upto 100 uM incubated for 24 to 72 hrs by MTT assay; format: functional, cell-based; details: time 24-72 hrs
U-87 MG [12] = experiment: Cytotoxicity against human U-87 MG assessed as reduction in cell viability upto 100 uM incubated for 24 to 72 hrs by MTT assay; format: functional, cell-based; details: U-87MG ATCC, time 24-72 hrs
[13] = Stability of compound in 20 mM CH3COONH4 buffer at pH 5.8 assessed as solvolysis constant (K) incubated for 72 hrs by LC-MS analysis; format: physicochemical; set-up: unit not given beside the values; details: pH 5.8, 72 h
[14] = Stability of compound in 50 mM Tris-HCL buffer at pH 7.4 assessed as solvolysis constant (K) incubated for 72 hrs by LC-MS analysis; format: physicochemical; details: pH 7.4, 72 h
[15] = Stability of compound in 0.05 M HCL assessed as solvolysis constant (K) incubated for 72 hrs by LC-MS analysis; format: physicochemical; set-up: unit not given beside the values; details: buffer
[16] = Stability of compound in 0.5 M NaOH assessed as solvolysis constant (K) incubated for 72 hrs by LC-MS analysis; format: physicochemical; set-up: unit not given beside the values
[17] = Stability of compound in 0.9 % saline solution assessed as solvolysis constant (K) incubated for 72 hrs by LC-MS analysis; format: physicochemical; details: buffer
[18] = Stability of compound in 50 mM Tris-HCL buffer at pH 7.4 assessed as half life incubated for 72 hrs by LC-MS analysis; format: physicochemical
[19] = Stability of compound in 0.5 M NaOH assessed as half life incubated for 72 hrs by LC-MS analysis; format: physicochemical
[20] = Stability of compound in 0.05 M HCL assessed as half life incubated for 72 hrs by LC-MS analysis; format: physicochemical
[21] = Stability of compound in 0.9 % saline solution assessed as half life incubated for 72 hrs by LC-MS analysis; format: physicochemical
[22] = Stability of compound in 20 mM CH3COONH4 buffer at pH 5.8 assessed as half life incubated for 72 hrs by LC-MS analysis; format: physicochemical; details: 20 mM ammonium acetate (CH3COONH4) buffer
[23] = Stability in mouse plasma measured after 1 hr by LC-HRMS analysis; format: ADME, cell-free; details: read-out: Stability
[24] = Stability of compound at pH 7.5 in phosphate buffer at 2 mg/ml; format: physicochemical
[25] = Metabolic stability in mouse liver microsomes assessed as drug hydrolysis by measuring 1-borono-N,N-dimethyl-N-((1-((3R,4R,5S,6R)-2,4,5-trihydroxy-6-(hydroxymethyl)tetrahydro-2H-pyran-3-yl)-1H-1,2,3-triazol-4-yl)methyl)methanaminium formation incubated for 1 hrs by LC-MS/MS analysis; format: ADME, Microsome
[26] = Stability of compound in 50 mM Tris-HCL buffer at pH 7.4 assessed as 1-borono-N,N-dimethyl-N-((1-((3R,4R,5S,6R)-2,4,5-trihydroxy-6-(hydroxymethyl)tetrahydro-2H-pyran-3-yl)-1H-1,2,3-triazol-4-yl)methyl)methanaminium formation incubated for 72 hrs by LC-MS analysis; format: physicochemical; details: pH 7.4, 72 h
[27] = Stability of compound in 0.05 M HCL assessed as 1-borono-N,N-dimethyl-N-((1-((3R,4R,5S,6R)-2,4,5-trihydroxy-6-(hydroxymethyl)tetrahydro-2H-pyran-3-yl)-1H-1,2,3-triazol-4-yl)methyl)methanaminium formation incubated for 72 hrs by LC-MS analysis; format: physicochemical; details: buffer
[28] = Stability of compound in 0.5 M NaOH assessed as 1-borono-N,N-dimethyl-N-((1-((3R,4R,5S,6R)-2,4,5-trihydroxy-6-(hydroxymethyl)tetrahydro-2H-pyran-3-yl)-1H-1,2,3-triazol-4-yl)methyl)methanaminium formation incubated for 72 hrs by LC-MS analysis; format: physicochemical
[29] = Stability of compound in 0.9 % saline solution assessed as 1-borono-N,N-dimethyl-N-((1-((3R,4R,5S,6R)-2,4,5-trihydroxy-6-(hydroxymethyl)tetrahydro-2H-pyran-3-yl)-1H-1,2,3-triazol-4-yl)methyl)methanaminium formation incubated for 72 hrs by LC-MS analysis; format: physicochemical; details: buffer
[30] = Stability of compound in 20 mM CH3COONH4 buffer at pH 5.8 assessed as 1-borono-N,N-dimethyl-N-((1-((3R,4R,5S,6R)-2,4,5-trihydroxy-6-(hydroxymethyl)tetrahydro-2H-pyran-3-yl)-1H-1,2,3-triazol-4-yl)methyl)methanaminium formation incubated for 72 hrs by LC-MS analysis; format: physicochemical; details: pH 5.8, 72 h
[31] = Stability of compound in 0.5 M NaOH assessed as N,N,N-trimethyl-1-(1-((3R,4R,5S,6R)-2,4,5-trihydroxy-6-(hydroxymethyl)tetrahydro-2H-pyran-3-yl)-1H-1,2,3-triazol-4-yl)methanaminium formation incubated for 72 hrs by LC-MS analysis; format: physicochemical
[32] = Stability of compound in 0.3 % H2O2 assessed as (3R,4R,5S,6R)-3-(4-((dimethylamino)methyl)-1H-1,2,3-triazol-1-yl)-6-(hydroxymethyl)tetrahydro-2H-pyran-2,4,5-triol formation incubated for 1 hrs by LC-MS analysis; format: physicochemical
[33] = Metabolic stability in mouse liver microsomes assessed as drug hydrolysis by measuring N-(boronomethyl)-N-butyl-N-(2-(2-(2-(((2R,3R,4S,5S,6R)-3,4,5-trihydroxy-6-(hydroxymethyl)tetrahydro-2H-pyran-2-yl)oxy)ethoxy)ethoxy)ethyl)butan-1-aminium formation incubated for 1 hr by LC-MS/MS analysis; format: ADME, Microsome
[34] = Stability of compound in Tris-HCL buffer at pH 7.4 assessed as N-(boronomethyl)-N-butyl-N-(2-(2-(2-(((2R,3R,4S,5S,6R)-3,4,5-trihydroxy-6-(hydroxymethyl)tetrahydro-2H-pyran-2-yl)oxy)ethoxy)ethoxy)ethyl)butan-1-aminium formation incubated for 72 hrs by LC-MS analysis; format: physicochemical; details: pH 7.4, 72 h
[35] = Stability of compound in 50 mM HCL assessed as N-(boronomethyl)-N-butyl-N-(2-(2-(2-(((2R,3R,4S,5S,6R)-3,4,5-trihydroxy-6-(hydroxymethyl)tetrahydro-2H-pyran-2-yl)oxy)ethoxy)ethoxy)ethyl)butan-1-aminium formation incubated for 72 hrs by LC-MS analysis; format: physicochemical; details: buffer
[36] = Stability of compound in 0.5 M NaOH assessed as N-(boronomethyl)-N-butyl-N-(2-(2-(2-(((2R,3R,4S,5S,6R)-3,4,5-trihydroxy-6-(hydroxymethyl)tetrahydro-2H-pyran-2-yl)oxy)ethoxy)ethoxy)ethyl)butan-1-aminium formation incubated for 72 hrs by LC-MS analysis; format: physicochemical
[37] = Stability of compound in 0.9 % saline solution assessed as N-(boronomethyl)-N-butyl-N-(2-(2-(2-(((2R,3R,4S,5S,6R)-3,4,5-trihydroxy-6-(hydroxymethyl)tetrahydro-2H-pyran-2-yl)oxy)ethoxy)ethoxy)ethyl)butan-1-aminium formation incubated for 72 hrs by LC-MS analysis; format: physicochemical; details: buffer
[38] = Stability of compound in 20 mM CH3COONH4 buffer at pH 5.8 assessed as N-(boronomethyl)-N-butyl-N-(2-(2-(2-(((2R,3R,4S,5S,6R)-3,4,5-trihydroxy-6-(hydroxymethyl)tetrahydro-2H-pyran-2-yl)oxy)ethoxy)ethoxy)ethyl)butan-1-aminium formation incubated for 72 hrs by LC-MS analysis; format: physicochemical; details: pH 5.8, 72 h
[39] = Stability of compound in 0.5 M NaOH assessed as N-butyl-N-methyl-N-(2-(2-(2-(((2R,3R,4S,5S,6R)-3,4,5-trihydroxy-6-(hydroxymethyl)tetrahydro-2H-pyran-2-yl)oxy)ethoxy)ethoxy)ethyl)butan-1-aminium formation incubated for 72 hrs by LC-MS analysis; format: physicochemical
[40] = Stability of compound in 0.3 % H2O2 assessed as (2R,3R,4S,5S,6R)-2-(2-(2-(2-(dibutylamino)ethoxy)ethoxy)ethoxy)-6-(hydroxymethyl)tetrahydro-2H-pyran-3,4,5-triol formation incubated for 1 hrs by LC-MS analysis; format: physicochemical
[41] = Stability of compound in phosphate/D2O buffer at pH 7.4 assessed as drug hydrolysis by measuring N-(boronomethyl)-N-butyl-N-(2-(2-(2-(((2R,3R,4S,5S,6R)-3,4,5-trihydroxy-6-(hydroxymethyl)tetrahydro-2H-pyran-2-yl)oxy)ethoxy)ethoxy)ethyl)butan-1-aminium formation incubated for 72 hrs by LC-MS analysis; format: physicochemical; details: pH 7.4, 72 h

C[N+](C)(Cc1cn([C@@H]2[C@@H](O)[C@H](O)[C@@H](CO)O[C@@H]2O)nn1)C[B-](F)(F)F
Activity (Fibroblast [1]): Non-toxic | Activity (A-375 [2]): Active | Activity (U-87 MG [3]): Active | Activity (Fibroblast [4]): Non-toxic | Activity (A-375 [5]): Active | Activity (U-87 MG [6]): Active | Activity (Fibroblast [7]): -15% | Activity (A-375 [8]): -15% | Activity (U-87 MG [9]): -15% | Activity (Fibroblast [10]): Non-toxic | Activity (A-375 [11]): Active | Activity (U-87 MG [12]): Active | K [13]: 8.731 | K [14]: 0.017 | K [15]: 0.766 | K [16]: 0.016 | K [17]: 0.038 | half-life [18]: 25 h | half-life [19]: ≥ 20.9 h | half-life [20]: 0.904 h | half-life [21]: 18.3 h | half-life [22]: ~0.0794 h | remaining at 1 h [23]: 4.15% | Stability [24]: Stable | Drug metabolism [25]: metabolite_detected | Stability [26]: Stable | Stability [27]: Stable | Stability [28]: Stable | Stability [29]: Stable | Stability [30]: Stable | Stability [31]: Stable | Stability [32]: Stable

CCCC[N+](CCCC)(CCOCCOCCO[C@@H]1O[C@H](CO)[C@@H](O)[C@H](O)[C@H]1O)C[B-](F)(F)F
K [13]: 0.03 | K [14]: 0.086 | K [15]: 2.617 | K [16]: 0.082 | K [17]: 0.102 | half-life [18]: 8.07 h | half-life [19]: 8.47 h | half-life [20]: 0.265 h | half-life [21]: 6.82 h | half-life [22]: 22.8 h | remaining at 1 h [23]: 8.89% | Drug metabolism [33]: metabolite_detected | Stability [34]: Stable | Stability [35]: Stable | Stability [36]: Stable | Stability [37]: Stable | Stability [38]: Stable | Stability [39]: Stable | Stability [40]: Stable | Stability [41]: Stable
